Results taken from US12162878B2 (HINOVA PHARMACEUTICALS INC., priority 2018, dated 2024).

Assays:
BRD4(1,2) = BRD4(1,2) (Homo sapiens (Human), UniProt O60885); assay: HTRF binding of compounds on BRD4 (D1+D2); conditions: read-out: IC50 against BRD4(1,2)
Excerpt: (§1) Homogeneous time-resolved fluorescence technology (HTRF) was used to determine the binding effect of compounds on BRD4 (D1+D2) and BRDT (D1) proteins, as well as AlphaScreen method was used to detect the binding effect of compounds on BRD2 (D1+D2) and BRD3 (D1+D2) proteins.
(§2) The compounds were screened in vitro, and each compound was serially diluted to 10 concentrations. Four proteins BRD4 (D1+D2), BRDT (D1), BRD2 (D1+D2) and BRD3 (D1+D2) were chosen to determine the IC50 values of compounds (see Table 1).
(§3) 4. Compound treatment: The test compound was dissolved in dimethyl sulfoxide (DMSO), and the storage concentration was 10 mM.
(§4) 5. Steps for Homogeneous Time-Resolved Fluorescence Detection:
(§5) 1) According to the arrangement of the detection plate, all compounds were diluted in Echo plate.
(§6) The final dilution concentration of DMSO is 0.1%.
(§7) 2) The compound or DMSO was transferred to a 384-well detection plate with the Echo automatic sampler.
(§8) 3) Two-fold concentration of the mixture of protein and peptide was added to the detection plate.
(§9) 4) Two-fold concentration of mixed detection solution was added to the test plate, and shaken for 30 s.
(§10) 5) Incubating for 2 h at room temperature.
(§11) 6) Fluorescence signal was read on Envision multi-function microplate reader (excitation light wavelength being 340 nm, and emission light wavelength being 615 nm and 665 nm).
(§12) The experimental data were recorded in an Excel file, and equation (1) was used to obtain the inhibition rate. Inh%=(Max−Signal)/(Max−Min)*100 Equation (1):
(§13) The obtained data was recorded in GraphPad software, and equation (2) was used to provide the IC50 values. Y=Bottom+(Top−Bottom)/(1+10^((Log IC50−X)*Hill Slope)) Equation (2): […]
(§14) Y axis was the inhibition rate, and X axis was the compound concentration.

BRDT(D1) = BRDT(D1) (Homo sapiens (Human), UniProt Q58F21); assay: HTRF binding of compounds on BRDT (D1); conditions: read-out: IC50 against BRDT(D1)
Excerpt: as §1, §2, §3, §4, §5, §6, §7, §8, §9, §10, §11, §12, §13, §14

MDA-MB-231 cells = assay: Inhibition of proliferation of MDA-MB-231 cells (CCK-8); assay type: cell-based, human; conditions: for IC50: Homo sapiens, 144 h, 6 days, CCK-8
Protocol: (§15) • MDA-MB-231 cell line (Cell Bank of Chinese Academy of Sciences, TCHu104) • FBS (Gibco, Cat. No. 10099-141) • 0.01M PBS (Biosharp, Cat. No. 162262) • RIPM1640 (Hyclone, Cat. No. 308090.01) • Penicillin-Streptomycin (Hyclone, Cat. No. SV30010) • Cell counting kit-8 (Signalway Antibody, Cat. No. CP002) • DMSO (Sigma, Cat. No. D5879) • Centrifuge Tube, 15 ml (Excell Bio, Cat. No. CS015-0001) • Cell Culture Dish, (Excell Bio, Cat. No. CS016-0128) • 96-well cell culture cluster (Corning, Cat. No. 3599) 3. Experimental Method
1) MDA-MB-231 cells were subcultured in cell culture media, and the cells in good growth condition were seeded in a 96-well plate, 80 μL for each well, thus the number of cells per well was 1500, then the plate was cultured overnight in a 37° C., 5% CO2 cell incubator.
(§16) 2) The drug was prepared with dimethyl sulfoxide (DMSO) as a 10 mM stock solution. Prior to use, the solution was diluted 3 times with DMSO, and then diluted with a 3-fold gradient to obtain 9 concentration gradients. Then, each concentration of the compound was further diluted 200 times with the culture media (to ensure that DMSO concentration in the culture system was 0.1%), 2 repeat wells for each concentration. The diluted solution of each compound (20 μL) was added to the cell culture well (with a final concentration of 10 μM, 3.3 μM, 1.1 μM . . . ), and shaken gently for mixing. In addition, three negative control wells containing only cells and three blank control wells containing only culture medium (20 μL DMSO diluted 200 times with culture medium being added to six wells) were included.
(§17) (1) After culturing for 6 days, 10 μL CCK-8 was added to each well and cultured for additional 2.5 h in a 37° C., 5% CO2 cell incubator.
(§18) (2) The absorbance (OD value) at 450 nm was measured with a multifunctional microplate reader.
(§19) (3) The data was analyzed by the Dose-response-inhibition equation in the software GraphPad Prism6, and the IC50 value was obtained.

MDA-MB-453 cells = assay: Inhibition of proliferation of MDA-MB-453 cells (CCK-8); assay type: cell-based, human; conditions: for IC50: Homo sapiens, 144 h, 6 days, CCK-8
Protocol: as §15, with “MDA-MB-453” for “MDA-MB-231”, “TCHu35)” for “TCHu104)”
1) MDA-MB-453 cells were subcultured in cell culture media, and the cells in good growth condition were seeded in a 96-well plate, 80 μL for each well, thus the number of cells per well was 1500, then the plate was cultured overnight in a 37° C., 5% CO2 cell incubator.
as §16, §17, §18, §19

In the case of `[2H]C([2H])([2H])n1cc(-c2cc(NS(=O)(=O)CC)ccc2N2CCC3(CC2)CC3)c2cc[nH]c2c1=O` [Compound 41], the IC50 (BRD4(1,2)) is reported as 0.014 µM, the IC50 (BRDT(D1)) is reported as 0.03 µM and the IC50 (MDA-MB-231 cells) is reported as 7.54 µM. It also gave an IC50 (MDA-MB-453 cells) of 0.089 µM.
`[2H]C([2H])([2H])n1cc(-c2cc(S(=O)(=O)CC)ccc2N2CCC3(CC3)C2)c2cc[nH]c2c1=O` [Compound 55, 4-(5(ethylsulfonyl)-2-(5-aza-spiro[2.4]heptan-5-yl)phenyl)-6-trideuteromethyl-1H-pyrrolo[2,3-c]pyridin-7(6H)-one] was tested, and the IC50 (MDA-MB-231 cells) was 0.749 µM, the “inhibitory action on MDA-MB-453 cells (in words)” value (MDA-MB-453 cells) was “effective inhibitory action” and the IC50 (MDA-MB-453 cells) was 0.048 µM.
`[2H]C([2H])([2H])n1cc(-c2cc(S(C)(=O)=O)ccc2N2CCC3(CC2)CC3(F)F)c2cc[nH]c2c1=O` [Compound 184, 4-(2-(1,1-difluoro-6-aza-spiro[2.5]octan-6-yl)-5-(methylsulfonyl)phenyl)-6-trideuteromethyl-1H-pyrrolo[2,3-c]pyridin-7(6H)-one] was tested, and the IC50 (BRD4(1,2)) was 0.0069 µM, the IC50 (BRDT(D1)) was 0.019 µM and the “inhibitory action on MDA-MB-231 cells (in words)” value (MDA-MB-231 cells) was “effective inhibitory action”. The IC50 (MDA-MB-231 cells) was 0.026 µM and the IC50 (MDA-MB-453 cells) was 0.44 µM.
In the case of `[2H]C([2H])([2H])n1cc(-c2cc(S(C)(=O)=O)c(F)cc2N2CCC3(CC2)CC3(F)F)c2cc[nH]c2c1=O` [Compound 219, 4-(2-(1,1-difluoro-6-aza-spiro[2.5]octan-6-yl)-4-fluoro-5-(methylsulfonyl)phenyl)-6-trideuteromethyl-1H-pyrrolo[2,3-c]pyridin-7(6H)-one], the IC50 (BRD4(1,2)) is reported as 0.012 µM and the IC50 (BRDT(D1)) is reported as 0.04 µM.
